Assays:
Details in all cases: human; call rule not given here
Hepatotoxicity [1] = test: FDA HLAED, liver enzyme composite activity
Hepatotoxicity [2] = test: FDA HLAED, alkaline phosphatase increase
Hepatotoxicity [3] = test: FDA HLAED, serum glutamic oxaloacetic transaminase (SGOT) increase
Hepatotoxicity [4] = test: FDA HLAED, serum glutamic pyruvic transaminase (SGPT) increase
Hepatotoxicity [5] = test: FDA HLAED, lactate dehydrogenase (LDH) increase
Hepatotoxicity [6] = test: FDA HLAED, gamma-glutamyl transferase (GGT) increase

| Compound | Composite Activity - Active (Hepatotoxicity [1]) | Composite Activity - Marginal (Hepatotoxicity [1]) | Composite Activity - Score (Hepatotoxicity [1]) | Alkaline Phosphatase Increase - Activity Score (Hepatotoxicity [2]) | Alkaline Phosphatase Increase - Index Value (Hepatotoxicity [2]) | Alkaline Phosphatase Increase - Number of Reports (Hepatotoxicity [2]) | SGOT Increase - Activity Score (Hepatotoxicity [3]) | SGOT Increase - Index Value (Hepatotoxicity [3]) | SGOT Increase - Number of Reports (Hepatotoxicity [3]) | SGPT Increase - Activity Score (Hepatotoxicity [4]) | SGPT Increase - Index Value (Hepatotoxicity [4]) | SGPT Increase - Number of Reports (Hepatotoxicity [4]) | LDH Increase - Activity Score (Hepatotoxicity [5]) | LDH Increase - Index Value (Hepatotoxicity [5]) | LDH Increase - Number of Reports (Hepatotoxicity [5]) | GGT Increase - Activity Score (Hepatotoxicity [6]) | GGT Increase - Index Value (Hepatotoxicity [6]) | GGT Increase - Number of Reports (Hepatotoxicity [6]) | further results |
| --- | --- | --- | --- | --- | --- | --- | --- | --- | --- | --- | --- | --- | --- | --- | --- | --- | --- | --- | --- |
| CCCCCCCCCC(=O)CC(=O)O[C@H]1CC[C@H]2[C@@H]3CCC4=CC(=O)CC[C@]4(C)[C@H]3CC[C@]12C [TESTOSTERONE KETOLAURATE] | 0 | 0 | Inactive | Inactive | 0 | < 4 | Inactive | 4.8 | < 4 | Inactive | 7.2 | < 4 | Inactive | 2.4 | < 4 | Inactive | 4.8 | < 4 | – |
| C[C@]12CC[C@H]3[C@@H](CCC4=CC(=O)CC[C@@]43C)[C@@H]1CC[C@@H]2OC(=O)Cc1ccccc1 [TESTOSTERONE PHENYLACETATE] | 0 | 0 | Inactive | Inactive | 0 | < 4 | Inactive | 4.8 | < 4 | Inactive | 7.2 | < 4 | Inactive | 2.4 | < 4 | Inactive | 4.8 | < 4 | – |
| CCC(=O)O[C@H]1CC[C@H]2[C@@H]3CCC4=CC(=O)CC[C@]4(C)[C@H]3CC[C@]12C [TESTOSTERONE PROPIONATE] | 0 | 0 | Inactive | Inactive | 0 | < 4 | Inactive | 4.8 | < 4 | Inactive | 7.2 | < 4 | Inactive | 2.4 | < 4 | Inactive | 4.8 | < 4 | – |
| C[C@]12CC[C@H]3[C@@H](CCC4=CC(=O)CC[C@@]43C)[C@@H]1CC[C@@H]2O [TESTOSTERONE] | 0 | 0 | Inactive | Inactive | 0 | < 4 | Inactive | 4.8 | < 4 | Inactive | 7.2 | < 4 | Inactive | 2.4 | < 4 | Inactive | 4.8 | < 4 | – |
| Cn1c(=O)c2[nH]cnc2n(C)c1=O.O [THEOPHYLLINE] | 0 | 0 | Inactive | Inactive | 0 | < 4 | Inactive | 0 | < 4 | Inactive | 0 | < 4 | Inactive | 0 | < 4 | Inactive | 0 | < 4 | – |
| Clc1ccccc1CN1CCc2sccc2C1 [TICLOPIDINE] | – | – | – | Inactive | 0 | < 4 | Inactive | 0 | < 4 | Inactive | 0 | < 4 | Inactive | 0 | < 4 | Inactive | 0 | < 4 | Composite Activity - Active (Hepatotoxicity [1]; Liver): 0; Composite Activity - Marginal (Hepatotoxicity [1]; Liver): 0; Composite Activity - Score (Hepatotoxicity [1]; Liver): Inactive |
| CC(C)(C)NC[C@H](O)COc1nsnc1N1CCOCC1 [TIMOLOL] | 0 | 0 | Inactive | Inactive | 0.1 | < 4 | Inactive | 0.1 | < 4 | Inactive | 0.1 | < 4 | Inactive | 0.1 | < 4 | Inactive | 0 | < 4 | – |
| Clc1ccc(C(Cn2ccnc2)OCc2ccsc2Cl)c(Cl)c1 (stereo unspecified) [TIOCONAZOLE] | – | – | – | Inactive | 0 | < 4 | Inactive | 0 | < 4 | Inactive | 0 | < 4 | Inactive | 0 | < 4 | Inactive | 0 | < 4 | Composite Activity - Active (Hepatotoxicity [1]; Liver): 0; Composite Activity - Marginal (Hepatotoxicity [1]; Liver): 0; Composite Activity - Score (Hepatotoxicity [1]; Liver): Inactive |
| CC(S)C(=O)NCC(=O)O (stereo unspecified) [TIOPRONIN] | 0 | 0 | Inactive | Inactive | 0 | < 4 | Inactive | 0 | < 4 | Inactive | 0 | < 4 | Inactive | 0 | < 4 | Inactive | 0 | < 4 | – |
| Clc1ccc2nsnc2c1NC1=NCCN1 [TIZANIDINE] | – | – | – | Inactive | 8.3 | < 4 | Inactive | 16.5 | < 4 | Active | 24.8 | < 4 | Inactive | 8.3 | < 4 | Inactive | 8.3 | < 4 | Composite Activity - Active (Hepatotoxicity [1]; Liver): 1; Composite Activity - Marginal (Hepatotoxicity [1]; Liver): 0; Composite Activity - Score (Hepatotoxicity [1]; Liver): Inactive |
| Cc1cccc(C)c1NC(=O)C(C)N (stereo unspecified) [TOCAINIDE] | 0 | 1 | Inactive | Inactive | 1.7 | >= 4 | Marginally Active | 3.5 | >= 4 | Inactive | 2.2 | >= 4 | Inactive | 1.7 | >= 4 | Inactive | 0 | < 4 | – |
| CC1(C)O[C@@H]2[C@@H](CO[C@@]3(COS(N)(=O)=O)OC(C)(C)O[C@@H]23)O1 [TOPIRAMATE] | 0 | 0 | Inactive | Inactive | 3.5 | < 4 | Inactive | 0 | < 4 | Inactive | 0 | < 4 | Inactive | 0 | < 4 | Inactive | 0 | < 4 | – |

Reference: ChEMBL document CHEMBL1697781, “Assessment of the health effects of chemicals in humans: II. Construction of an adverse effects database for QSAR modeling” (Curr Drug Discov Technol, 2004)
